Measurements from patent US10364267B2, “Deuterated bile acid derivatives as FXR/TGR5 agonists and methods of use thereof” (ENANTA PHARMACEUTICALS, INC., priority 2016, dated 2019).

Biological target: T1, human FXR (NR1H4) (Homo sapiens, UniProt Q96RI1)
T1 construct: host or cells: CHO (Chinese hamster ovary) reporter cells
T1 sequence (Q96RI1 1-486): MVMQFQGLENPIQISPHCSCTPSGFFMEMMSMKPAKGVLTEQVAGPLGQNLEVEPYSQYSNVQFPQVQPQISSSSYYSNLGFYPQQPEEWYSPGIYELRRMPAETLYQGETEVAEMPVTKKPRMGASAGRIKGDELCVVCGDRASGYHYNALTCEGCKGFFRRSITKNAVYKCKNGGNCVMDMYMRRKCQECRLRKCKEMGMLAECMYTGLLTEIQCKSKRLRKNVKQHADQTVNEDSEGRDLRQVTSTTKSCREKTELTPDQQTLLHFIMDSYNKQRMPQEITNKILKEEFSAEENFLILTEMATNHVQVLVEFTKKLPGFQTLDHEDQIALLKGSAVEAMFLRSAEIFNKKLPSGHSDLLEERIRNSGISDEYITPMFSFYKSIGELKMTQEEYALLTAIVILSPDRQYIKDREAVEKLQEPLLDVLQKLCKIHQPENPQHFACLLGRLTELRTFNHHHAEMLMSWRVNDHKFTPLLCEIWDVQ
Assay: Human FXR (NR1H4) Assay (luciferase reporter, Indigo Bioscience kit)
Assay type: cell-based
Conditions: for Efficacy (%): efficacy normalized to CDCA set as 100%, CHO reporter cells expressing human NR1H4
Text: Human FXR (NR1H4) Assay Determination of a ligand mediated Gal4 promoter driven transactivation to quantify ligand binding mediated activation of FXR. FXR Reporter Assay kit purchased from Indigo Bioscience (Catalogue number: IB00601) to determine the potency and efficacy of compound developed by Enanta that can induce FXR activation. The principle application of this reporter assay system is to quantify functional activity of human FXR. The assay utilizes non-human mammalian cells, CHO (Chinese hamster ovary) cells engineered to express human NR1H4 protein (referred to as FXR). Reporter cells also incorporate the cDNA encoding beetle luciferase which catalyzes the substrates and yields photon emission. Luminescence intensity of the reaction is quantified using a plate-reading luminometer, Envision. Reporter Cells include the luciferase reporter gene functionally linked to an FXR responsive promoter. Thus, quantifying changes in luciferase expression in the treated reporter cells provides a sensitive surrogate measure of the changes in FXR activity. […] The assay is according to the manufacturer's instructions. In brief, the assay was performed in white, 96 well plates using final volume of 100 ul containing cells with different doses of compounds. Retrieve Reporter Cells from −80° C. storage. Perform a rapid thaw of the frozen cells by transferring a 10 ml volume of 37° C. cell recovery medium into the tube of frozen cells. Recap the tube of Reporter Cells and immediately place it in a 37° C. water bath for 5-10 minutes. Retrieve the tube of Reporter Cell Suspension from the water bath. Sanitize the outside surface of the tube with a 70% alcohol swab, and then transfer it into the cell culture hood. Dispense 90 μl of cell suspension into each well of the 96-well Assay Plate. Transfer the plate into 37° C. incubator, allowing the cells adherent to the bottom of the well. Dilute compounds in Dilution Plate (DP), and administrate to cells at Assay Plate (AP). DMSO content of the samples was kept at 0.2%. Cells were incubated for additional 22 hours before luciferase activities were measured. Thirty minutes before intending to quantify FXR activity, remove Detection Substrate and Detection Buffer from the refrigerator and place them in a low-light area so that they may equilibrate to room temperature. Remove the plate's lid and discard all media contents by ejecting it into an appropriate waste container. Gently tap the inverted plate onto a clean absorbent paper towel to remove residual droplets. Cells will remain tightly adhered to well bottoms. Add 100 μl of luciferase detection reagent to each well of the assay plate. […] Set the instrument (Envision) to perform a single 5 second “plate shake” prior to reading the first assay well. Read time may be 0.5 second (500 mSec) per well.

| SMILES | EC50 | Efficacy (%) |
| --- | --- | --- |
| [2H]C([C@@H]1[C@@H]2C[C@H](O)CC[C@]2(C)C2CC[C@@]3(C)C(CC[C@@H]3[C@H](C)CCNC(=O)NS(=O)(=O)c3ccc(C(C)(C)C)cc3)C2[C@]1([2H])O)C([2H])([2H])[2H] (stereo partly shown) [Example 4] | < 100 nM | 197% |
| [2H]C([C@@H]1[C@@H]2C[C@H](O)CC[C@]2(C)C2CC[C@@]3(C)C(CC[C@@H]3[C@H](C)CCNC(=O)NS(=O)(=O)N(C)C)C2[C@]1([2H])O)C([2H])([2H])[2H] (stereo partly shown) [Example 5] | 100 to 1000 nM | 352. % |
